Measured values from patent US20090156466A1, “Characterization of a MEKK binding site and uses thereof” (priority 2007, published 2009).

Assays:
MEKK3-14-3-3 interaction = target: T1, MEKK3-14-3-3 interaction (Homo sapiens, UniProt Q99759); experiment: Co-immunoprecipitation of 14-3-3 with FLAG-MEKK3 from HEK 293 cells treated with kinase inhibitor; assay type: cell-based; settings: HEK 293 cells with wt MEKK3; 1 μM, 5 μM or 10 μM for 20 min prior to solubilization
T1 construct: expressed in transfected cells; host or cells: HEK 293
T1 sequence (Q99759 1-626): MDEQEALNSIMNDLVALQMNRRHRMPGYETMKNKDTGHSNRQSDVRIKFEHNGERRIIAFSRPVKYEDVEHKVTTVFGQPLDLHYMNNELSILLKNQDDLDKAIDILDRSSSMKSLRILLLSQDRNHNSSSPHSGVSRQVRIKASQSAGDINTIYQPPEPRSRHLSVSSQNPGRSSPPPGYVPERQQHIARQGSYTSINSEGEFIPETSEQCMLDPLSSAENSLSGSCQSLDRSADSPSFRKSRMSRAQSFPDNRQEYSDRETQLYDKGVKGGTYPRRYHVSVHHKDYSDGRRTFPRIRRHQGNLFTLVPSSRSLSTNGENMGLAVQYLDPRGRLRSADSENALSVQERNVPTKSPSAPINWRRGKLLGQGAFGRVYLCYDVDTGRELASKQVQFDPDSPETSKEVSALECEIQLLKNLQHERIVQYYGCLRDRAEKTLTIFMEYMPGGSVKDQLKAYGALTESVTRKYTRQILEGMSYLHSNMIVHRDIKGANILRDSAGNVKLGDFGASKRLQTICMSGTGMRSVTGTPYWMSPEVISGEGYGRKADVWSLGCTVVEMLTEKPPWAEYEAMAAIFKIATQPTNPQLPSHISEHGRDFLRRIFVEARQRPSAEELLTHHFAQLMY
Protocol: A, B. HEK 293 cells were transfected with wildtype (wt) MEKK3, K391M MEKK3, or S526A MEKK (shown in B) or empty vector. After 24 hours, cells were solubilized, and FLAG-MEKK3 was immunoprecipitated with anti-FLAG M2-conjugated agarose. Proteins were resolved by SDS-PAGE, and immunoblotted with anti-FLAG antibody or anti-14-3-3β antibody (which recognizes the family of 14-3-3 proteins). C. HEK 293 cells were transfected with wt MEKK3 for 24 hours, and then treated with staurosporine (1 μM, 5 μM, or 10 μM) for 20 min prior to solubilization. MEKK3 and 14-3-3 were detected as in A.
HEK 293 cells were plated onto 35-mm-diameter dishes at 80% confluency, and transfected with 100 to 500 ng of cDNA using Lipofectamine-2000 (Gibco-BRL) following the manufacturer's protocol. Transfection medium was removed and replaced with complete DMEM overnight.
Cells were lysed in 50 mM Tris-HCl, pH 7.4, 1% Triton X-100, 25 mM NaF, 25 mM β-glycerophosphate, 5 mM EDTA, 0.05% SDS, 1.0 μg/ml microcystin LR, and protease inhibitors. […] FLAG was stained with anti-FLAG M2 mouse monoclonal (Sigma), and 14-3-3 isoforms were detected with anti-14-3-3β (H8; Santa Cruz Biotechnology).
The family of 14-3-3 proteins was detected by immunoblotting with a pan-specific 14-3-3 antibody raised against a common sequence present in all family members. […]

MEKK3 = target: T2, MEKK3 (Homo sapiens, UniProt Q99759); experiment: MEKK3 mobility band shift on high-ratio acrylamide:bis-acrylamide SDS-PAGE of lysates from treated cells; assay type: cell-based; settings: MEKK3 expressed in treated HEK293 cells; data not shown
T2 construct: expressed in transfected cells; host or cells: HEK 293
T2 sequence (Q99759 1-626): T1 sequence (Q99759 1-626)

| SMILES | MEKK3-14-3-3 interaction (14-3-3 co-immunoprecipitation) (MEKK3-14-3-3 interaction) | MEKK3 band shift (mobility shift on SDS-PAGE) (MEKK3) |
| --- | --- | --- |
| CN[C@@H]1C[C@H]2O[C@@](C)([C@@H]1OC)n1c3ccccc3c3c4c(c5c6ccccc6n2c5c31)C(=O)NC4 [staurosporine] | disrupted MEKK3-14-3-3 interaction | reduced the MEKK3 band shift |
| N#CC(=C(/N)Sc1ccccc1N)/C(C#N)=C(\N)Sc1ccccc1N [U0126] | – | had no effect on mobility shift |
